Assay results published in publication PMC2896951, “The proline-rich peptide Bac7(1-35) reduces mortality from Salmonella typhimurium in a mouse model of infection” (BMC Microbiology, 2010).
Where a SMILES comes first, the peptide text is derived from it. Where no end group is shown, it is not given here.

Experiments:
[1] = 37°C, Western blot
Procedure: (§1) At different times, aliquots of samples were diluted 1:5 in sample buffer (12% SDS, 6% dithiothreitol, 40% glycerol, 0.05% bromophenol blue, 150 mM Tris-HCl, pH 7), incubated for 15 min at 60°C and analyzed on a 16% Tricine/SDS gel. Proteins were then blotted onto nitrocellulose membrane (Whatman), and incubated overnight with shaking at 4°C in 40 mM Tris-HCl, pH 7.5, 5% non-fat milk, 0.05% Tween 20, 200 mM NaCl (blocking solution). Samples were incubated for 90 min with 1:1000 rabbit anti-Bac7(1-35) IgG, diluted in blocking solution, followed by a HRP-conjugated anti-rabbit IgG (Sigma-Aldrich). The ECL detection system (GE Healthcare) was used to develop the Western blots.

in vitro = assay: in vitro
Procedure: Bac7(1-35) peptide (50 μg) was incubated in 250 μL of PBS containing 25% (v/v) of murine serum or plasma at 37°C. At different time intervals (0, 1, 2, 4, 8 and 24 h), aliquots of 25 μL (corresponding to 5 μg of peptide) were added to 65 μL of cold 0.5% (v/v) TFA in H2O, kept on ice for 5 min and than centrifuged at 10.000 × g for 5 min. The LC-MS analysis of supernatants were carried out as described, using a standard curve to calculate the peptide concentration.

[2] = 37°C, several days of incubation
Procedure: as §1

[3] = test system: Salmonella enterica serovar Typhimurium ATCC 14028; assay: Killing kinetics assay (bactericidal activity) in the presence of biological fluids; type: cell-based; conditions: for reduction of the number of CFU: 10 μM peptide, 1 h incubation, 37°C
Procedure: Murine plasma obtained using 2% (v/v) Na-citrate as an anticoagulant, and serum were prepared and stored at -20°C until use. The bactericidal activity of Bac7(1-35) against Salmonella enterica serovar Typhimurium ATCC 14028 was determined by a killing kinetics assay. Mid-logarithmic phase S. enterica cultures were diluted in murine serum or plasma (66% v/v final concentration) or BSA (40 mg/mL) (Sigma) to give approximately 1 × 10^6 cells/ml, and incubated with 10 μM Bac7(1-35) in a shaking water bath at 37°C for different times. Samples were withdrawn, diluted and plated to allow colony counts.

[4] = test system: S. typhimurium ATCC 14028 infection in CBA/Ca mice; assay: Mouse model of typhoid fever, survival; type: in vivo
Procedure: Inocula containing 10^2 CFU/mouse of S. enterica ATCC 14028, expected to result in 90-100% mortality in 4-6 days for Balb/c and 10-18 days for CBA/Ca, were prepared by diluting log-phase bacterial cultures in sterile PBS. Ten mice were infected intraperitoneally and monitored for survival over a 60-day period after infection. Test peptide (30 mg/kg) was injected via i.p. after bacterial challenge. The choice of dose was based on preliminary data obtained with lower doses (data not shown) and on results reported in the literature for structurally similar peptides. Control mice were given 0.2 ml of PBS. […] The analysis of survival curves was conducted using the Kaplan-Meyer method and successive statistical evaluation by the Logrank test. Significance of percentage differences among groups was assessed by using the Fisher exact test. Values of p < 0.05 were considered statistically significant.

[5] = test system: S. enterica ATCC 14028 in liver and spleen of CBA/Ca mice; assay: Viable colony counts in murine liver and spleen homogenates; type: in vivo, mouse; conditions: 30 mg/kg i.p., 3 days post-inoculation
Procedure: Three days after bacterial infection, a group of 3 untreated and 3 peptide-treated mice were killed by cervical dislocation, and liver and spleen were removed. The organs were weighed, homogenized separately and dissolved in PBS. Suitable dilutions of 50 μL of the homogenate in PBS were plated in duplicate on Mueller-Hinton agar (Difco). The plates were then incubated at 37°C overnight to allow colony counts. Results are expressed as number of CFU/g of organ. This assay was repeated two fold.

Balb/c and CBA/Ca mice = assay: In vivo toxicity after single i.p. injection; set-up: species or system mouse
Procedure: The in vivo toxicity of Bac7(1-35) was investigated by injecting mice via i.p. with increasing amounts of the peptide dissolved in apyrogen PBS (0.2 ml per mouse). The controls received the vehicle alone. Animal behavior and survival were monitored over a 14-day period.

[6] = test system: E. coli infection; S. typhimurium disease; set-up: method as in 2 sources, one per row (each row's own in cited_ref): ref 8 = [8]; PMID 12222961; doi:10.1007/s00018-002-8493-8; Otvos L The short proline-rich antibacterial peptide family Cell Mol Life Sci 2002 59 7 1138 1150 10.1007/s00018-002-8493-8 12222961 PMC11337521 ||| ref 22 = [22]; PMID 2934362; doi:10.1093/jac/16.5.615; Easmon CS Blowers A Ciprofloxacin treatment of systemic salmonella infection in sensitive and resistance mice J Antimicrob Chemother 1985 16 5 615 619 10.1093/jac/16.5.615 2934362; conditions: Balb/c mice; cited from earlier work
Procedure: As a first step to evaluate the therapeutic potential of Bac7(1-35), its in vivo toxicity was determined in Balb/c and CBA/Ca mice after injection via i.p. of increasing single peptide doses. […] For ... || The potential of Bac7(1-35) to protect mice from a bacterial challenge was tested by a mouse model of Salmonella infection. Infected mice develop a systemic disease characterized by rapid bacterial multiplication in the liver and spleen that resembles typhoid fever caused by Salmonella serovar Typhi in humans.

[7] = Antimicrobial activity of the labelled peptide (data not shown); type: cell-based
healthy animals / mice = conditions: i.v.; cited from earlier work

Compound: CC[C@H](C)[C@H](NC(=O)[C@H](CCCNC(=N)N)NC(=O)[C@@H](N)CCCNC(=N)N)C(=O)N[C@@H](CCCNC(=N)N)C(=O)N1CCC[C@H]1C(=O)N[C@@H](CCCNC(=N)N)C(=O)N1CCC[C@H]1C(=O)N1CCC[C@H]1C(=O)N[C@@H](CCCNC(=N)N)C(=O)N[C@@H](CC(C)C)C(=O)N1CCC[C@H]1C(=O)N[C@@H](CCCNC(=N)N)C(=O)N1CCC[C@H]1C(=O)N[C@@H](CCCNC(=N)N)C(=O)N1CCC[C@H]1C(=O)N[C@@H](CCCNC(=N)N)C(=O)N1CCC[C@H]1C(=O)N[C@@H](CC(C)C)C(=O)N1CCC[C@H]1C(=O)N[C@@H](Cc1ccccc1)C(=O)N1CCC[C@H]1C(=O)N[C@@H](CCCNC(=N)N)C(=O)N1CCC[C@H]1C(=O)NCC(=O)N1CCC[C@H]1C(=O)N[C@@H](CCCNC(=N)N)C(=O)N1CCC[C@H]1C(=O)N[C@H](C(=O)N1CCC[C@H]1C(=O)N[C@@H](CCCNC(=N)N)C(=O)N1CCC[C@H]1C(=O)N[C@@H](CC(C)C)C(=O)N1CCC[C@H]1C(=O)N[C@@H](Cc1ccccc1)C(=O)N1CCC[C@H]1C(=O)O)[C@@H](C)CC [Bac7(1-35)] (H-RRIRPRPPRLPRPRPRPLPFPRPGPRPIPRPLPFP-OH; N-terminus and C-terminus assumed)
- degradation in plasma relative to serum (immunodetection) ([1]; 25% (v/v) murine plasma in PBS, up to 24 h): slower
- band corresponding to intact peptide (immunodetection) ([1]; 25% (v/v) murine serum in PBS, 24 h incubation, 120 μg in 200 μL): disappeared
- degradation process in plasma relative to serum (in vitro; 25% (v/v) murine plasma in PBS, 37°C, LC-MS): slower in plasma than in serum
- state of the peptide after 8 h (in vitro; 25% (v/v) murine serum in PBS, 37°C, 8 h incubation, LC-MS): almost completely degraded
- metabolised at 1 h, 200 μg/mL (in vitro; mouse, 25% (v/v) murine serum in PBS): 10%
- peptide degradation in PBS alone [2]: no peptide degradation was observed
- reduction of the number of CFU ([3]; in the absence of serum/plasma): 2.5 log
- reduction of the number of CFU ([3]; with 66% murine serum or plasma, approx. 1 × 10^6 cells/ml, three independent determinations in triplicate): 0.5-1 log
- bactericidal activity upon addition of BSA ([3]; 40 mg/mL BSA, data not shown): did not change
- peptide concentration giving a CFU reduction comparable to 10 μM in serum/plasma ([3]; without the presence of plasma/serum, 1 h): 1 µM
- mean survival time ([4]; 30 mg/kg i.p. after i.p. challenge with 1 × 10^2 CFU/mouse, 60 days monitoring, control 10 days, p = 0.01): 24.5 days
- infected mice completely cured (survival) ([4]; 30 mg/kg i.p., 60 days, untreated 0%, p = 0.04): 36%
- fraction of animals with bacteria undetectable in both spleen and liver [5]: 1/3
- number of viable bacterial cells in liver and spleen homogenates ([5]; CBA/Ca mice): decreased significantly
- dose at which mice died (Balb/c and CBA/Ca mice; highest dose): 150 mg/kg
- dose with no apparent toxic effect (Balb/c and CBA/Ca mice; monitored over 14 days): up to 75 mg/kg

Compound: O=C(O)c1cn(C2CC2)c2cc(N3CCNCC3)c(F)cc2c1=O [ciprofloxacin]
- prevention of fatal S. typhimurium disease [6]: failed to prevent

Compound: Bac7(1-35)-Alexa680: derivative of Bac7(1-35) fluorescently labelled with the dye Alexa680 via an added C-terminal cysteine (RRIRPRPPRLPRPRPRPLPFPRPGPRPIPRPLPFP-{C(Alexa Fluor 680 C2-maleimide)}; UniProt P19661 131-165, looked up, fragment)
- antimicrobial activity relative to the unlabelled peptide [7]: comparable

Compound: Drosocin: insect proline-rich AMP (GKPRPYSPRPTSHPRPIRV; ends and bridges not checked; UniProt P36193 22-40, looked up)
- dose at which completely devoid of toxicity (healthy animals / mice): 100 mg/kg
